Measured values: ChEMBL document CHEMBL5113460, “Discovery of dual inhibitors of topoisomerase I and Cyclooxygenase-2 for colon cancer therapy” (Eur J Med Chem, 2022)
Activity calls are given as the source filed them. The rule behind the calls is not given here.

How the values were obtained:
[1] = target: T1, DNA topoisomerase 1 (Homo sapiens) (UniProt P11387); assay: Inhibition of topoisomerase 1 (unknown origin) assessed as relaxation of supercoiled plasmid pBR322 DNA at 1 uM incubated for 45 mins by ethidium bromide staining based agarose gel electrophoresis
T1 sequence (whole entry): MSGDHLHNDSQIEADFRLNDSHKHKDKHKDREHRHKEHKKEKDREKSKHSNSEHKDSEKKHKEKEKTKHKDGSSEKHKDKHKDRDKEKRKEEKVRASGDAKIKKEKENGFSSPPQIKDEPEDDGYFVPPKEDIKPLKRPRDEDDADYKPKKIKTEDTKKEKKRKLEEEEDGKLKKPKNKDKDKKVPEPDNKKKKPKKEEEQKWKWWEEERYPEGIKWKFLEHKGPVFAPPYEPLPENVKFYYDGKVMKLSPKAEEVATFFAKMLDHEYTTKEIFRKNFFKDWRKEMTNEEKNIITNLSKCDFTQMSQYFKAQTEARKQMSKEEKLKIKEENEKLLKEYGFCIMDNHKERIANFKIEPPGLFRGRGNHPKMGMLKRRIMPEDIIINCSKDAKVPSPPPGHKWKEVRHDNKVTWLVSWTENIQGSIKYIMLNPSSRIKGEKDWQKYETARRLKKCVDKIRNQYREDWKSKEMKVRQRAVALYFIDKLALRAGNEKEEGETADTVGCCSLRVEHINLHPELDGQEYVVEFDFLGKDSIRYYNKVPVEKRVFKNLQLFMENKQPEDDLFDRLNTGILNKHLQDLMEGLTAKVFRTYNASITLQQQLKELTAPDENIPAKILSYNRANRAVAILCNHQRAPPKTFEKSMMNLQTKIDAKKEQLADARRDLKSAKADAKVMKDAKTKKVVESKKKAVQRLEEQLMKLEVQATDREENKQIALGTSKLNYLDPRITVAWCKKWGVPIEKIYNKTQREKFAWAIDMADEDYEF

[2] = test system: HCT-116; assay: Antitumor activity against human HCT-116 cells assessed as inhibition of cell proliferation incubated for 72 hrs by MTT assay; type: functional, cell-based; settings: HCT-116, 72 h
[3] = target: Prostaglandin G/H synthase 2 (Homo sapiens) (UniProt P35354); assay: Inhibition of COX-2 (unknown origin) at 30 uM
[4] = test system: RKO; assay: Antitumor activity against human RKO cells assessed as inhibition of cell proliferation incubated for 72 hrs by MTT assay; type: functional, cell-based
[5] = target: Prostaglandin G/H synthase 2 (Homo sapiens) (UniProt P35354); assay: Inhibition of COX-2 (unknown origin) at 3 uM
[6] = test system: LoVo; assay: Antitumor activity against human LoVo cells assessed as inhibition of cell proliferation incubated for 72 hrs by MTT assay; type: functional, cell-based
[7] = test system: SW480; assay: Antitumor activity against human SW480 cells assessed as inhibition of cell proliferation incubated for 72 hrs by MTT assay; type: functional, cell-based; settings: SW480, 72 h
[8] = test system: HT-29; assay: Antitumor activity against human HT-29 cells assessed as inhibition of cell proliferation incubated for 72 hrs by MTT assay; type: functional, cell-based; settings: HT-29, 72 h
[9] = target: T1, DNA topoisomerase 1 (Homo sapiens); assay: Inhibition of topoisomerase 1 (unknown origin) assessed as relaxation of supercoiled plasmid pBR322 DNA at 10 uM incubated for 45 mins by ethidium bromide staining based agarose gel electrophoresis
[10] = Water solubility of compound by HPLC analysis; type: physicochemical
[11] = test system: HT-29; assay: Antitumor activity against human HT-29 cells xenografted in BALB/c mouse assessed as inhibition of tumor growth at 30 mg/kg, ip bid and measured after 14 days by vernier caliper method; type: functional; settings: HT-29, 336 h, time 14 day, read-out: TGI
[12] = test system: HT-29; assay: Antitumor activity against human HT-29 cells xenografted in BALB/c mouse assessed as reduction of tumor weight at 30 mg/kg, ip bid and measured after 14 days; type: functional, organism-based; settings: time 14.0 day
[13] = test system: HT-29; assay: Antitumor activity against human HT-29 cells xenografted in BALB/c mouse assessed as inhibition of tumor microvessel density by measuring CD31-index at 30 mg/kg, ip bid for 14 days by immunohistochemical analysis; type: functional; settings: time 14 day

Sequence of Prostaglandin G/H synthase 2 (Homo sapiens) (P35354 whole entry, looked up): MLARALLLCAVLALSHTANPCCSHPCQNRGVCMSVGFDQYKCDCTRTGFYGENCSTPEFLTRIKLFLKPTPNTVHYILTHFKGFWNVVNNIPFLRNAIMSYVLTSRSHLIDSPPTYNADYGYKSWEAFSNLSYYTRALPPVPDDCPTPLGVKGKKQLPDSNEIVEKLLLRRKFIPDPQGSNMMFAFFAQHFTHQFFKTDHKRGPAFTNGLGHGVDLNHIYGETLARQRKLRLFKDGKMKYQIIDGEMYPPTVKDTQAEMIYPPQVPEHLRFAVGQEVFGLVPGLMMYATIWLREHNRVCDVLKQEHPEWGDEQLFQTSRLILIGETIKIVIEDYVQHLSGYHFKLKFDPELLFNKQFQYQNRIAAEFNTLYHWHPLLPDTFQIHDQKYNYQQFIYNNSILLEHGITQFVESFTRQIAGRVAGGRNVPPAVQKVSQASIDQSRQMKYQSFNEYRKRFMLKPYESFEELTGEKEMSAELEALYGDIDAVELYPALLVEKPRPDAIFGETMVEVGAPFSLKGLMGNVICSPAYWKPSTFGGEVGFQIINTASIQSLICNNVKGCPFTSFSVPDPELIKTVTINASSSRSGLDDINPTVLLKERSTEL

SMILES | inhibition [1] | IC50 [2] | inhibition [3] | IC50 [4] | inhibition [5] | IC50 [6] | IC50 [7] | IC50 [8] | inhibition [9] | solubility [10] | inhibition in vivo at 30 mg/kg [11] | Activity [12] | Inhibition_index [13]
Cc1c(Cl)cccc1Nc1ccccc1C(=O)Nc1ccc(N2CCN(C(C)C)CC2)cc1 | 37.5% | 12 µM | 83.7% | 10.8 µM | 30.1% | 8.29 µM | 10.3 µM | 2.97 µM | 54.6% | – | – | – | –
Cc1c(Cl)cccc1Nc1ccccc1C(=O)Nc1ccc(N2CCN(c3ccccc3)CC2)cc1 | 12.6% | > 30 µM | 37.8% | > 30 µM | 27.6% | > 30 µM | > 30 µM | > 30 µM | 13.9% | – | – | – | –
Cc1c(Cl)cccc1Nc1ccccc1C(=O)Nc1ccc(OC(=O)CO)cc1 | – | 13.5 µM | 97.9% | 14.1 µM | 24.9% | > 30 µM | > 30 µM | 13.6 µM | 45.1% | – | – | – | –
Cc1c(Cl)cccc1Nc1ccccc1C(=O)Nc1ccc(NCCO)cc1 | – | 13.9 µM | 100% | 29 µM | 69% | > 30 µM | > 30 µM | 12.9 µM | 40.9% | – | – | – | –
Cc1c(Cl)cccc1Nc1ccccc1C(=O)Nc1ccc(C(N)=O)cc1 | – | 17.5 µM | 3.53% | > 30 µM | – | 22.8 µM | > 30 µM | 26.1 µM | 19.6% | – | – | – | –
Cc1c(Cl)cccc1Nc1ccccc1C(=O)Nc1ccc(N2CCN(C)CC2)cc1 | 25.4% | 7.58 µM | 100% | 6.61 µM | 54.4% | 5 µM | 11.3 µM | 2.09 µM | 67.8% | – | – | – | –
COCCOc1ccc(NC(=O)c2ccccc2Nc2cccc(Cl)c2C)cc1 | 25% | > 30 µM | 36.5% | 15.4 µM | 31.7% | 14.7 µM | > 30 µM | 7.48 µM | 29.3% | – | – | – | –
Cc1c(Cl)cccc1Nc1ccccc1C(=O)Nc1ccc(OCCN)cc1 | 41.3% | 6.41 µM | 43.2% | 9.22 µM | 28.7% | 12.9 µM | 25.3 µM | 12 µM | 63.8% | – | – | – | –
O=c1[nH]cc(F)c(=O)[nH]1 [FLUOROURACIL] | – | 7.77 µM | – | – | – | 8.35 µM | > 30 µM | 12.2 µM | – | – | – | – | –
CCCN1CCN(c2ccc(NC(=O)c3ccccc3Nc3cccc(Cl)c3C)cc2)CC1 | – | 13.4 µM | 81% | 10.1 µM | 36.5% | 13.5 µM | 16.9 µM | 6.35 µM | 63.1% | – | – | – | –
Cc1c(Cl)cccc1Nc1ccccc1C(=O)Nc1ccc(N2CCN(S(C)(=O)=O)CC2)cc1 | 19.5% | > 30 µM | 34.2% | > 30 µM | 24.5% | > 30 µM | > 30 µM | > 30 µM | 19.7% | – | – | – | –
COCC(=O)Oc1ccc(NC(=O)c2ccccc2Nc2cccc(Cl)c2C)cc1 | – | 12.6 µM | 47.7% | 14 µM | 25.2% | > 30 µM | > 30 µM | 18.7 µM | 16.6% | – | – | – | –
Cc1c(Cl)cccc1Nc1ccccc1C(=O)Nc1ccc(N2CCOCC2)cc1 | – | > 30 µM | 42.9% | > 30 µM | 41.6% | > 30 µM | > 30 µM | 6.4 µM | 14.5% | – | – | – | –
Cc1c(Cl)cccc1Nc1ccccc1C(=O)Nc1ccc(S(N)(=O)=O)cc1 | 19.8% | 7.7 µM | 71.3% | 13.7 µM | 42% | 13.3 µM | 14.7 µM | 28.8 µM | 24.4% | – | – | – | –
Cc1c(Cl)cccc1Nc1ccccc1C(=O)Nc1ccc(N2CCN(C(=O)OC(C)(C)C)CC2)cc1 | – | > 30 µM | 41.9% | > 30 µM | 18.9% | > 30 µM | > 30 µM | 11.9 µM | 20.4% | – | – | – | –
CCCCN1CCN(c2ccc(NC(=O)c3ccccc3Nc3cccc(Cl)c3C)cc2)CC1 | 27.6% | 13.2 µM | 58.3% | 15.2 µM | 42.2% | > 30 µM | 18.3 µM | 9.83 µM | 53.2% | – | – | – | –
Cc1c(Cl)cccc1Nc1ccccc1C(=O)Nc1ccc(OCCNC(=O)OC(C)(C)C)cc1 | – | > 30 µM | 28% | 0.75 µM | – | 28.9 µM | > 30 µM | 1.88 µM | 18.2% | < 1 µg/mL | 37.9% | Active | 11.67
CCN1CCN(c2ccc(NC(=O)c3ccccc3Nc3cccc(Cl)c3C)cc2)CC1 | – | 11.5 µM | 100% | 10 µM | 37.1% | 9.51 µM | 15.8 µM | 2.99 µM | 71.9% | – | – | – | –
CC(=O)N1CCN(c2ccc(NC(=O)c3ccccc3Nc3cccc(Cl)c3C)cc2)CC1 | – | > 30 µM | 60.3% | > 30 µM | 37.6% | > 30 µM | > 30 µM | > 30 µM | 29% | – | – | – | –
Cc1c(Cl)cccc1Nc1ccccc1C(=O)Nc1ccc(OCCO)cc1 | – | 9.65 µM | 47.9% | 16.7 µM | 22.6% | 24.7 µM | > 30 µM | 6.83 µM | 46.2% | – | – | – | –
